Laboratory results taken from PubChem BioAssay AID686963 (Sanford-Burnham Center for Chemical Genomics, 2013).
The source made the active and inactive calls.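 Rule for the calls: active = compounds blocking the small tyrosine phosphatase LMPTP with an IC50 of 20 micromolar or lower; inactive = the rest.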

Target: Low molecular weight phosphotyrosine protein phosphatase (Homo sapiens) (UniProt P24666)
Assay: LMPTP-A phosphatase inhibitors, analogs, SAR follow-up, orthogonal assay, biochemical, absorbance (AID 686963)
Settings: recombinant LMPTP-A, pNPP absorbance, 50 min

Sequence of Low molecular weight phosphotyrosine protein phosphatase (Homo sapiens) (P24666 whole entry, looked up): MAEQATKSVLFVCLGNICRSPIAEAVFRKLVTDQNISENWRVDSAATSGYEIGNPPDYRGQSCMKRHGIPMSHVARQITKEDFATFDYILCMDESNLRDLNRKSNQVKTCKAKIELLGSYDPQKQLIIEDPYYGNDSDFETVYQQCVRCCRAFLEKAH

SMILES | IC50
c1ccc(-c2cc(NCCN3CCCCC3)c3ccccc3n2)cc1 | 4.97 µM
O=C(OCCNc1nc(-c2ccccc2)nc2ccccc12)c1ccncc1 | inactive
Cc1ccc(-c2nc(NCCN3CCOCC3)c3ccccc3n2)cc1 | inactive
Fc1ccccc1-c1nc(NCCCN2CCOCC2)c2ccccc2n1 | inactive
Cc1cccc(-c2nc(NCCCN3CCOCC3)c3ccccc3n2)c1 | inactive
Fc1ccccc1-c1nc(NC2CCCC2)c2ccccc2n1 | inactive
c1ccc(-c2nc(NCCCn3ccnc3)c3ccccc3n2)cc1 | inactive
CC(C)OCCCNc1nc(-c2ccccc2)nc2ccccc12 | inactive
COc1ccccc1CNc1ncnc2ccsc12 | > 80 µM (inactive)
CCc1nc(N)nc(N)c1-c1ccc(Cl)cc1 | inactive
c1ccc(-c2cc(N3CCCCC3)c3ccccc3n2)cc1 | inactive
c1ccc(-c2nc(NCc3cccnc3)c3ccccc3n2)cc1 | inactive

Second part, the compound after the results:

IC50 | SMILES
13.5 µM | Nc1nc(N)c(Cc2ccc(Cl)cc2Cl)c(N)n1
inactive | O=C(OCCNc1nc(-c2ccccc2)nc2ccccc12)c1cccnc1
inactive | Cc1ccc(-c2nc(NCc3cccnc3)c3ccccc3n2)cc1
17.5 µM | Cc1c(CCC(=O)O)c(=O)oc2c(C)c(OCc3ccccc3Cl)ccc12
11.6 µM | Clc1cccc(Cl)c1Cn1cnc(=NCc2ccco2)c2[nH]cnc21
